Source: ChEMBL document CHEMBL5131534, “Identification of 2-Pyridinylindole-Based Dual Antagonists of Toll-like Receptors 7 and 8 (TLR7/8)” (ACS Med Chem Lett, 2022)

Legend:
Toll-like receptor 7 = molecular target: T1, Toll-like receptor 7 (Homo sapiens, UniProt Q9NYK1); assay: Antagonist activity at gardiquimod stimulated human TRL7 overexpressed in HEK293 cells assessed as inhibition of NF kappa B/Ap-1 activation preincubated with compound for 30 mins followed by gardiquimod stimulation measured after 22 hrs by SEAP reporter assay; assay type: cell-based
T1 sequence (Q9NYK1 whole entry): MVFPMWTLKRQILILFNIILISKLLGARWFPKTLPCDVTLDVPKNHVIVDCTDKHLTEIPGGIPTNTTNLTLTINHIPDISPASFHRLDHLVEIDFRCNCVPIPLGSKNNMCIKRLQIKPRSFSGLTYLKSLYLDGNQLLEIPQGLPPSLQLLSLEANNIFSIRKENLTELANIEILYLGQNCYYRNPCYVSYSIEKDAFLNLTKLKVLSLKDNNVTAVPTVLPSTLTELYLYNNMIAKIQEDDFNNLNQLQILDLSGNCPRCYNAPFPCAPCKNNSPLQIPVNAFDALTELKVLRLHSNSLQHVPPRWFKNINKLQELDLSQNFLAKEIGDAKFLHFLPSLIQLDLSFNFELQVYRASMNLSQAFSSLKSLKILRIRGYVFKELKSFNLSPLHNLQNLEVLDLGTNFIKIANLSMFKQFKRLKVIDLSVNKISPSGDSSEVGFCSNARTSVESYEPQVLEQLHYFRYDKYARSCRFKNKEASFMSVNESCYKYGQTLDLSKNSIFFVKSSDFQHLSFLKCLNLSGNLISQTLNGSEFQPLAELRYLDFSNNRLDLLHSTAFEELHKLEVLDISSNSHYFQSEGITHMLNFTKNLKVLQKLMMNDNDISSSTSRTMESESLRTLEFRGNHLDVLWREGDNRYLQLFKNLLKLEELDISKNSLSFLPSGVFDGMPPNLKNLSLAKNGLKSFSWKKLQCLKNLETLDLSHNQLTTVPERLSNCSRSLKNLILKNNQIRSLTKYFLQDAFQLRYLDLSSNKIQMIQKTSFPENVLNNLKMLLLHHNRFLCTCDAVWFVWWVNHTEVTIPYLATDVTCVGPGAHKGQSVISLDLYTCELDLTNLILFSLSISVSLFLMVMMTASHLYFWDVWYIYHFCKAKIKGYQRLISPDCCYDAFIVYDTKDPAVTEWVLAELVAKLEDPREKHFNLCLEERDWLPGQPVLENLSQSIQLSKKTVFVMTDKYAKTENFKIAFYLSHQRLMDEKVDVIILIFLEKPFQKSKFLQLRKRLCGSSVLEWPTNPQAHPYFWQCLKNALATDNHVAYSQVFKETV

Homo sapiens = species on record: Homo sapiens; assay: Selectivity ratio of IC50 for human TLR9 to IC50 for human TLR7
[1] = Toxicity in MRL/Ipr Systemic lupus erythematosus mouse model assessed as change in body weight at 10 mg/kg, po administered for 8 weeks and measured 24 hrs post final dose; assay type: organism-based; details: in vivo, 1368 h
Mus musculus [2] = assay: Anti-inflammatory activity against MRL/Ipr Systemic lupus erythematosus mouse model assessed as inhibition of urinary NGAL at 10 mg/kg, po administered for 8 weeks and measured 24 hrs post final dose relative to control; assay type: functional; design: scale not given: the % may be the effect or the level left; details: time 1368 hrs
Mus musculus [3] = assay: Anti-inflammatory activity against MRL/Ipr Systemic lupus erythematosus mouse model assessed as inhibition of anti-Sm/RNP Ab titer at 10 mg/kg, po administered for 8 weeks and measured 24 hrs post final dose relative to control; assay type: functional; design: scale not given: the % may be the effect or the level left; details: time 1368 hrs
[4] = Toxicity in MRL/Ipr Systemic lupus erythematosus mouse model assessed as relative spleen weight at 10 mg/kg, po administered for 8 weeks and measured 24 hrs post final dose relative to control; assay type: organism-based; details: in vivo, 1368 h
Mus musculus [5] = assay: Anti-inflammatory activity against MRL/Ipr Systemic lupus erythematosus mouse model assessed as inhibition of anti-dsDNA Ab titer at 10 mg/kg, po administered for 8 weeks and measured 24 hrs post final dose relative to control; assay type: functional; design: scale not given: the % may be the effect or the level left; details: time 1368 hrs
Mus musculus [6] = assay: Anti-inflammatory activity against MRL/Ipr Systemic lupus erythematosus mouse model assessed as inhibition of proteinuria at 10 mg/kg, po administered for 8 weeks and measured 24 hrs post final dose relative to control; assay type: functional; design: scale not given: the % may be the effect or the level left; details: time 1368 hrs
Toll-like receptor 8 = molecular target: T2, Toll-like receptor 8 (Homo sapiens, UniProt Q9NR97); assay: Antagonist activity at R848 stimulated human TRL8 overexpressed in HEK293 cells assessed as inhibition of NF kappa B/Ap-1 activation preincubated with compound for 30 mins followed by R848 stimulation measured after 22 hrs by SEAP reporter assay; assay type: cell-based
T2 sequence (Q9NR97 whole entry): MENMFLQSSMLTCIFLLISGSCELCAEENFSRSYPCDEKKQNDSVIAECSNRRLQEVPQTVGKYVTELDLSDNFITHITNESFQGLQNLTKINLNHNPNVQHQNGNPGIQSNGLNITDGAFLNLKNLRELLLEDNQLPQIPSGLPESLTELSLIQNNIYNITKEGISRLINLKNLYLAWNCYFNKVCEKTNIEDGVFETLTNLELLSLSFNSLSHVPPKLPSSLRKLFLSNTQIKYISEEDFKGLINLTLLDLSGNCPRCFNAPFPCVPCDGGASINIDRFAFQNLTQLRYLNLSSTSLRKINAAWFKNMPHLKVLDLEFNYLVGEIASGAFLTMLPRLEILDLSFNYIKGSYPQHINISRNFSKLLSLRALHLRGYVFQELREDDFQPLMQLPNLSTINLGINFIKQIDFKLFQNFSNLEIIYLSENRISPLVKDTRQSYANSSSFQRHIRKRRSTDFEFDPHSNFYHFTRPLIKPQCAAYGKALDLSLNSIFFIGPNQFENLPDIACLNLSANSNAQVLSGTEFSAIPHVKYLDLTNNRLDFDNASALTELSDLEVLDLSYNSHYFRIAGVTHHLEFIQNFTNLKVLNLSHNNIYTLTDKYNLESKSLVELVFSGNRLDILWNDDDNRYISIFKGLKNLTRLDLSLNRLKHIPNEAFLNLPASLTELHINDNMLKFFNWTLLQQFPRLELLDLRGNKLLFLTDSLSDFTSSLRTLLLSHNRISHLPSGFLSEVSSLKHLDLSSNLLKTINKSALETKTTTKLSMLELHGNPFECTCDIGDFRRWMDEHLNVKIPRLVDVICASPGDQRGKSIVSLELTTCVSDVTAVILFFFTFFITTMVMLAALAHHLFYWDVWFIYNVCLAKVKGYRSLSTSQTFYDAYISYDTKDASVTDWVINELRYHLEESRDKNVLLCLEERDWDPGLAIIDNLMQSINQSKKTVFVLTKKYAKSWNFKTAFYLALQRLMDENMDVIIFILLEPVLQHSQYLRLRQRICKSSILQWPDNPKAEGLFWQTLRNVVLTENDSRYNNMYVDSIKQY

SMILES	IC50 (Toll-like receptor 7) [nM]	Ratio IC50 (Homo sapiens)	other results
CCc1c(-c2ccnc(C)c2)[nH]c2ccc(C3CCNCC3)c(C)c12	14		
Cc1cc(-c2[nH]c3ccc(C4CCNCC4)cc3c2C(C)C)c(C)cn1		370	
Cc1nc(C)c(C)c(-c2[nH]c3ccc(C4CCNCC4)cc3c2C(C)C)c1C	300		
CC(C)c1c(-c2ccncc2)[nH]c2ccc(C3CCNCC3)cc12	29		
CC(C)c1c(-c2ccncc2CO)[nH]c2ccc(C3CCNCC3)cc12	200		
CCc1c(-c2ccnc(C)c2)[nH]c2cc(F)c(C3CCNCC3)c(F)c12	13		
CC(C)c1c(-c2ccnc(C3CC3)c2)[nH]c2ccc(C3CCNCC3)cc12	92		
Cc1cc(-c2[nH]c3ccc(C4CCNCC4)cc3c2C(C)C)cc(F)n1		1050	
Cc1cc(-c2[nH]c3ccc(C4CCNCC4)c(F)c3c2C(C)C)cc(C)n1	0.9		
Cc1cc(-c2[nH]c3ccc(C4CCNCC4)cc3c2C(C)C)cc(C2CC2)n1	22		
C[C@]12C=CC(=O)C=C1CC[C@@H]1[C@@H]2[C@@H](O)C[C@@]2(C)[C@H]1CC[C@]2(O)C(=O)CO [PREDNISOLONE]			Activity [1]: Toxic; Activity (Mus musculus [2]): 74%; Activity (Mus musculus [3]): 79%; Activity [4]: 88%; Activity (Mus musculus [5]): 85%; Activity (Mus musculus [6]): 77%
Cc1cc(-c2[nH]c3ccc(C4CCNCC4)cc3c2C(C)C)c(C)c(C)n1		130	
Cc1cc(-c2[nH]c3cc(C)c(C4CCNCC4)cc3c2C(C)C)ccn1	8.2		
Cc1cc(-c2[nH]c3cc(F)c(C4CCNCC4)cc3c2C(C)C)ccn1	0.8		
CCc1cc(-c2[nH]c3ccc(C4CCNCC4)cc3c2C(C)C)cc(C)n1	57		
CCc1c(-c2ccnc(C)c2)[nH]c2c(F)cc(C3CCNCC3)cc12		1	
Cc1cc(-c2[nH]c3cc(C(F)(F)F)c(C4CCNCC4)cc3c2C(C)C)ccn1	17	77	IC50 (Toll-like receptor 8): 420 nM

Further lines, with some results ahead:

IC50 (Toll-like receptor 7) [nM]	Ratio IC50 (Homo sapiens)	SMILES	other results
74		COc1cc(-c2[nH]c3ccc(C4CCNCC4)cc3c2C(C)C)ccn1	
> 10000		CNCCN1CCC(c2ccc3[nH]c(-c4cccnc4)c(C)c3c2)CC1	
> 10000		CNCCN1CCC(c2ccc3[nH]c(-c4ccc(OC)nc4)c(C)c3c2)CC1	
28	25	Cc1nccc(-c2[nH]c3ccc(C4CCNCC4)cc3c2C(C)C)c1C	
3300		CNCCN1CCC(c2ccc3[nH]c(-c4cncc(OC)c4)c(C)c3c2)CC1	
1.9		COc1cc(-c2[nH]c3ccc(C4CCNCC4)cc3c2C(C)C)cc(C)n1	
24		CCc1c(-c2ccnc(C)c2)[nH]c2ccc(C3CCNCC3)cc12	
	91	Cc1cnccc1-c1[nH]c2ccc(C3CCNCC3)cc2c1C(C)C	
	160	Cc1cc(-c2[nH]c3ccc(C4CCNCC4)cc3c2C(C)C)ccn1	
> 10000		CNCCN1CCC(c2ccc3[nH]c(-c4cccc(OC)n4)c(C)c3c2)CC1	
	19	CC(C)c1c(-c2ccnc(CO)c2)[nH]c2ccc(C3CCNCC3)cc12	
